Assay results as given in BindingDB's records for doi:10.3109/14756366.2012.656622 (Shandong University, 2013).
Counter-ions that a name gives are not always drawn.

Tests used:
[1] = target: 72 kDa type IV collagenase (Pig, UniProt Q95JA4); experiment: MMP-2 Inhibition Assay
Procedure: Gelatinase A (MMP-2) and TNBS were purchased from Sigma, and the substance was synthesized as described by Vijaykumar et al. The gelatinase, substance, and inhibitor were dissolved in sodium borate (pH8.5, 50 mmol/L) and incubated for 30 min at 37 °C, and then 0.03 % TNBS was added and incubated for another 20 min, the resulting solution was detected under 450 nm wavelength to gain absorption.

Aminopeptidase N = target: T1, Aminopeptidase N (Sus scrofa, UniProt P15145); experiment: APN Inhibition Assay; details: pH 7.5; 25 °C
T1 sequence (P15145 whole entry): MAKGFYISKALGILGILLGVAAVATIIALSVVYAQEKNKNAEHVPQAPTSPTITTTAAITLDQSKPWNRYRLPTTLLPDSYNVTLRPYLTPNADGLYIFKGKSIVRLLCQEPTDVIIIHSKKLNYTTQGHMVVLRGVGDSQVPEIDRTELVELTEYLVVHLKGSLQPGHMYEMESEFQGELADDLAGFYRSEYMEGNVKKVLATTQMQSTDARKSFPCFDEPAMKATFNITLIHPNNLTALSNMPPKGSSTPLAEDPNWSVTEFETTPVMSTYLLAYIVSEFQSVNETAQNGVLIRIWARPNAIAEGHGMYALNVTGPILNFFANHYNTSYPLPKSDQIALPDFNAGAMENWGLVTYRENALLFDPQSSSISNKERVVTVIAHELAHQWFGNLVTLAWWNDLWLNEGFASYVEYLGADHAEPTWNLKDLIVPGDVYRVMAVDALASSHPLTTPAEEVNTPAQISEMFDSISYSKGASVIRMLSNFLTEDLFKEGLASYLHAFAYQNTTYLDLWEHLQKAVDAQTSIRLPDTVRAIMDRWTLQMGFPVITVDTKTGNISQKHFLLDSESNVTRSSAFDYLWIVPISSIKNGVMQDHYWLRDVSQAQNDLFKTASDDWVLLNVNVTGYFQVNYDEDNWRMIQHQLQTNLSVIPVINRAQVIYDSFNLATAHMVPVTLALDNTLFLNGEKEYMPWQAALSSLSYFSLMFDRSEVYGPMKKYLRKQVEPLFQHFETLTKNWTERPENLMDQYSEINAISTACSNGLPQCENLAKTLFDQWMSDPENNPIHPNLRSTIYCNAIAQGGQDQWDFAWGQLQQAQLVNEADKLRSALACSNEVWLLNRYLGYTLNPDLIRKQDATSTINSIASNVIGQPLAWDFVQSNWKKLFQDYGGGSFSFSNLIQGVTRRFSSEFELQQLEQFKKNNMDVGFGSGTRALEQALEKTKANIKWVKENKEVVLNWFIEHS
Procedure: IC50 values against APN from Porcine Kidney were determined by using L-Leu-p-nitroanilide as a substrate. All the solutions of the inhibitors were prepared in the assay buffer( pH 7.5). All the inhibitors were preincubated with APN for 5 min at room temperature. The assay mixture, which contained the inhibitor solution (concentration dependent on the inhibitor), the enzyme solution (4 mg/mL final concentration), and the assay buffer, was adjusted to 200 μL, and then incubated at 37 ℃ for 30 min.

Chain of 72 kDa type IV collagenase (Q95JA4 whole entry): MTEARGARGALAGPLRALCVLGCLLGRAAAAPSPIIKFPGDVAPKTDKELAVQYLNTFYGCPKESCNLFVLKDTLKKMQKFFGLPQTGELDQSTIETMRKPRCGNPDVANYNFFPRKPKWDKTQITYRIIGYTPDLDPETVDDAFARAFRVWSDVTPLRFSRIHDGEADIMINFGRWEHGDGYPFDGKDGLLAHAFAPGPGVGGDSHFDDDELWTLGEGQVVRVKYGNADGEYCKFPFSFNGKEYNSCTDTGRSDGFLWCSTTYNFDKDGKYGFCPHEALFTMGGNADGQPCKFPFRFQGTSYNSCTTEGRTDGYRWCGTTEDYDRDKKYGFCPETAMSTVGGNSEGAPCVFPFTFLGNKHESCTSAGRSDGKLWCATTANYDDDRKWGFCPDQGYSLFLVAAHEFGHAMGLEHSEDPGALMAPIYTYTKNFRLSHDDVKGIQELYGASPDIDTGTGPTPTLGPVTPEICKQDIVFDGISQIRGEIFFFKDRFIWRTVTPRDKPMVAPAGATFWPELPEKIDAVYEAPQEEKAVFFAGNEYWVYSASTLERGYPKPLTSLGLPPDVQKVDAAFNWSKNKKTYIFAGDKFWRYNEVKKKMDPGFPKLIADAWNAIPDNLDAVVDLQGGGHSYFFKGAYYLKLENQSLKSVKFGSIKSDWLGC

Row | IC50 [1] [µM] | IC50 (Aminopeptidase N) [µM] | SMILES
1 | 562 |  | N[C@@H](c1ccccc1)[C@@H](O)C(=O)N[C@@H](CO)C(=O)O [(S)-2-((2R,3S)-3-amino-2-hydroxy-3-phenylpropanamido)-3-hydroxypropanoic acid hydrochloride (5h)]
2 | 213 | 1.26 | N[C@@H](c1ccccc1)[C@@H](O)C(=O)N[C@H](C(=O)NO)c1ccccc1 [(2R,3S)-3-amino-2-hydroxy-N-((S)-2-(hydroxyamino)-2-oxo-1-phenylethyl)-3-phenylpropanamide hydrochloride (7e)]
3 | 186 |  | CC(C)C[C@H](NC(=O)[C@H](O)[C@@H](N)c1ccccc1)C(=O)NC(C(=O)O)c1ccccc1 (stereo partly drawn) [(S)-2-((S)-2-((2R,3S)-3-amino-2-hydroxy-3-phenylpropanamido)-4-methylpentanamido)-2-phenylacetic acid hydrochloride (5k)]
4 | 163 |  | CC(C)C[C@H](NC(=O)[C@@H](O)[C@H](N)Cc1ccccc1)C(=O)O
5 | 249 | 44 | N[C@@H](c1ccccc1)[C@@H](O)C(=O)N[C@@H](Cc1ccccc1)C(=O)NO [(2R,3S)-3-amino-2-hydroxy-N-((S)-1-(hydroxyamino)-1-oxo-3-phenylpropan-2-yl)-3-phenylpropanamide hydrochloride (7f)]
6 | 264 |  | CCC(C)[C@H](NC(=O)[C@H](O)[C@@H](N)c1ccccc1)C(=O)O (stereo partly drawn) [(2S)-2-((2R,3S)-3-amino-2-hydroxy-3-phenylpropanamido)-3-methylpentanoic acid hydrochloride (5d)]
7 | 497 |  | N[C@@H](c1ccccc1)[C@@H](O)C(=O)N[C@@H](Cc1ccccc1)C(=O)O [(S)-2-((2R,3S)-3-amino-2-hydroxy-3-phenylpropanamido)-3-phenylpropanoic acid hydrochloride (5f)]
8 | 254 | 198 | N[C@@H](c1ccccc1)[C@@H](O)C(=O)N[C@H](C(=O)O)c1ccccc1 [(S)-2-((2R,3S)-3-amino-2-hydroxy-3-phenylpropanamido)-2-phenylacetic acid hydrochloride (5e)]
9 |  | 105 | CC(C)C[C@H](NC(=O)[C@H](Cc1ccccc1)NC(=O)[C@H](O)[C@@H](N)c1ccccc1)C(=O)O [(S)-2-((S)-2-((2R,3S)-3-amino-2-hydroxy-3-phenylpropanamido)-3-phenylpropanamido)-4-methylpentanoic acid hydrochloride (5n)]
10 | 292 | 158 | N[C@@H](c1ccccc1)[C@@H](O)C(=O)N[C@@H](CO)C(=O)NO [(2R,3S)-3-amino-2-hydroxy-N-((S)-3-hydroxy-1-(hydroxyamino)-1-oxopropan-2-yl)-3-phenylpropanamide hydrochloride (7h)]
11 | 292 |  | C[C@H](NC(=O)[C@H](O)[C@@H](N)c1ccccc1)C(=O)NO [(2R,3S)-3-amino-2-hydroxy-N-((S)-1-(hydroxyamino)-1-oxopropan-2-yl)-3-phenylpropanamide hydrochloride (7c)]
12 | 128 | 76.9 | CC(C)[C@H](NC(=O)[C@H](O)[C@@H](N)c1ccccc1)C(=O)NO [(S)-2-((2R,3S)-3-amino-2-hydroxy-3-phenylpropanamido)-N-hydroxy-3-methylbutanamide hydrochloride (7b)]
13 | 273 | 342 | C[C@H](NC(=O)[C@H](O)[C@@H](N)c1ccccc1)C(=O)O [(S)-2-((2R,3S)-3-amino-2-hydroxy-3-phenylpropanamido)propanoic acid hydrochloride (5c)]
14 | 424 | 513 | CC(C)C[C@H](NC(=O)[C@H](CC(C)C)NC(=O)[C@H](O)[C@@H](N)c1ccccc1)C(=O)O [(S)-2-((S)-2-((2R,3S)-3-amino-2-hydroxy-3-phenylpropanamido)-4-methylpentanamido)-4-methylpentanoic acid hydrochloride (5j)]
15 | 64.6 | 56.7 | CC(C)C[C@H](NC(=O)[C@H](O)[C@@H](N)c1ccccc1)C(=O)NO [(S)-2-((2R,3S)-3-amino-2-hydroxy-3-phenylpropanamido)-N-hydroxy-4-methylpentanamide hydrochloride (7a)]
16 | 690 | 590 | CC(C)C[C@H](NC(=O)[C@H](O)[C@@H](N)c1ccccc1)C(=O)N[C@H](C(=O)O)C(C)C [(S)-2-((S)-2-((2R,3S)-3-amino-2-hydroxy-3-phenylpropanamido)-4-methylpentanamido)-3-methylbutanoic acid hydrochloride (5i)]
17 | 207 | 82.9 | CCC(C)[C@H](NC(=O)[C@H](O)[C@@H](N)c1ccccc1)C(=O)NO (stereo partly drawn) [(2S)-2-((2R,3S)-3-amino-2-hydroxy-3-phenylpropanamido)-N-hydroxy-3-methylpentanamide hydrochloride (7d)]
18 | 287 |  | CC(C)[C@H](NC(=O)[C@H](O)[C@@H](N)c1ccccc1)C(=O)O [(S)-2-((2R,3S)-3-amino-2-hydroxy-3-phenylpropanamido)-3-methylbutanoic acid hydrochloride (5b)]
19 | 215 | 352 | CC(C)C[C@H](NC(=O)[C@H](O)[C@@H](N)c1ccccc1)C(=O)O [(S)-2-((2R,3S)-3-amino-2-hydroxy-3-phenylpropanamido)-4-methylpentanoic acid hydrochloride (5a)]
20 |  | 363 | Cc1ccccc1NC(=O)[C@H](CC(C)C)NC(=O)[C@H](O)[C@@H](N)c1ccccc1 [(S)-2-((2R,3S)-3-amino-2-hydroxy-3-phenylpropanamido)-4-methyl-N-o-tolylpentanamide hydrochloride (9b)]
21 | 299 | 173 | N[C@@H](c1ccccc1)[C@@H](O)C(=O)N[C@@H](Cc1ccc(O)cc1)C(=O)NO [(2R,3S)-3-amino-2-hydroxy-N-((S)-1-(hydroxyamino)-3-(4-hydroxyphenyl)-1-oxopropan-2-yl)-3-phenylpropanamide hydrochloride (7g)]
22 | 407 |  | N[C@@H](c1ccccc1)[C@@H](O)C(=O)N[C@@H](Cc1ccc(O)cc1)C(=O)O [(S)-2-((2R,3S)-3-amino-2-hydroxy-3-phenylpropanamido)-3-(4-hydroxyphenyl) propanoic acid hydrochloride (5g)]
